Reference: article PMC4807618 (Angewandte Chemie (International ed. in English), 2016)

How the values were obtained:
[1] = system: NA activity of oseltamivir-susceptible (wild-type) H1N1 influenza virus A/Brisbane/59/2007; format: biochemical
[2] = system: NA activity of oseltamivir-susceptible (wild-type) H1N1 influenza virus A/Netherlands/049/2008; format: biochemical

CCN[C@H]1C[C@H](C)S(=O)(=O)c2sc(S(N)(=O)=O)cc21 [Dorzolamide, dorzolamide]
effect on NA activity [1]: no effect | effect on NA activity [2]: no effect

CCn1cc(C(=O)O)c(=O)c2ccc(C)nc21 [Nalidixic acid, nalidixic acid]
effect on NA activity [1]: no effect | effect on NA activity [2]: no effect
